Results from PubChem BioAssay AID330 (DTP/NCI, 2004).
Values joined by “and” are separate entries in the source; they are usually repeats but may differ in a detail not shown here. Equal entries are not always repeated. Inconclusive results and toxic doses are left out. Rule for the calls: active = survival T/C of 150% or more; inactive = T/C below 125% in these data.

Tested on: P388 leukemia ip, CD2F1 mice, survival T/C
Assay: NCI In Vivo Anticancer Drug Screen. Data for tumor model P388 Leukemia (intraperitoneal) in CD2F1 (CDF1) mice
Conditions: endpoint: median survival time, higher = longer survival
Outline: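 Mice carrying the transplanted tumor received test compound or vehicle. Survival was recorded in each group, and the value is the treated-group measurement divided by that of the vehicle-treated control group.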

[1] = dose: 60.0 mg/kg/injection, schedule: Q01DX005 (ip), vehicle: Klucel (hydroxypropylcellulose) (HPC)
[2] = dose: 120.0 mg/kg/injection, schedule: Q01DX005 (ip), vehicle: Klucel (hydroxypropylcellulose) (HPC)
[3] = dose: 240.0 mg/kg/injection, schedule: Q01DX005 (ip), vehicle: Klucel (hydroxypropylcellulose) (HPC)
[4] = dose: 60.0 mg/kg/injection, schedule: Q01DX005 (ip), vehicle: saline with Tween-80
[5] = dose: 120.0 mg/kg/injection, schedule: Q01DX005 (ip), vehicle: saline with Tween-80
[6] = dose: 50.0 mg/kg/injection, schedule: Q01DX005 (ip), vehicle: saline with Tween-80
[7] = dose: 100.0 mg/kg/injection, schedule: Q01DX005 (ip), vehicle: saline with Tween-80
[8] = dose: 200.0 mg/kg/injection, schedule: Q01DX005 (ip), vehicle: saline with Tween-80
[9] = dose: 50.0 mg/kg/injection, schedule: Q01DX009 (ip), vehicle: saline with Tween-80
[10] = dose: 100.0 mg/kg/injection, schedule: Q01DX009 (ip), vehicle: saline with Tween-80
[11] = dose: 25.0 mg/kg/injection, schedule: Q01DX009 (ip), vehicle: saline with Tween-80
[12] = dose: 50.0 mg/kg/injection, schedule: Q01DX005 (ip), vehicle: Klucel (hydroxypropylcellulose) (HPC)
[13] = dose: 100.0 mg/kg/injection, schedule: Q01DX005 (ip), vehicle: Klucel (hydroxypropylcellulose) (HPC)
[14] = dose: 200.0 mg/kg/injection, schedule: Q01DX005 (ip), vehicle: Klucel (hydroxypropylcellulose) (HPC)

Measured: T/C

Nc1ccc2nc3ccc(=O)cc-3n(-c3ccccc3)c2c1
inactive: dose: 0.5 mg/kg/injection, schedule: Q01DX009 (ip), vehicle: saline 115 % of control | dose: 1.0 mg/kg/injection, schedule: Q01DX009 (ip), vehicle: saline 124 % of control | dose: 1.25 mg/kg/injection, schedule: Q01DX009 (ip), vehicle: saline 102 % of control | dose: 2.5 mg/kg/injection, schedule: Q01DX009 (ip), vehicle: saline 104 % of control | dose: 5.0 mg/kg/injection, schedule: Q01DX009 (ip), vehicle: saline 105 % of control | dose: 20.0 mg/kg/injection, schedule: Q01DX009 (ip), vehicle: saline 119 % of control | dose: 40.0 mg/kg/injection, schedule: Q01DX009 (ip), vehicle: saline 114 % of control

COc1ccc(C(c2cc3c(cc2O)OCO3)N2CCOCC2)c(OC)c1 (stereo not drawn)
inactive: [1] 101 % of control | [2] 99 % of control | [3] 110 % of control

CCOC(=O)C/C(C)=C1/N=C(c2ccccc2)OC1=O
inactive: [4] 91 % of control | [5] 91 % of control | dose: 240.0 mg/kg/injection, schedule: Q01DX005 (ip), vehicle: saline with Tween-80 92 % of control

C#CCn1c2c(c3ccccc3c1=O)C(=O)c1ccccc1-2
inactive: [6] 88 % of control | [7] 88 % of control | [8] 101 % of control

O=P1(Oc2ccc(N=C=S)cc2)OCCCO1
inactive: [1] 102 % of control | [2] 103 % of control | [3] 104 % of control

[O-][n+]1ccccc1C1CO1 (stereo not drawn)
inactive: dose: 6.25 mg/kg/injection, schedule: Q01DX009 (ip), vehicle: saline 105 % of control | dose: 12.5 mg/kg/injection, schedule: Q01DX009 (ip), vehicle: saline 103 % of control | dose: 25.0 mg/kg/injection, schedule: Q01DX009 (ip), vehicle: saline 102 % of control | dose: 100.0 mg/kg/injection, schedule: Q01DX009 (ip), vehicle: saline 88 % of control

CCCCCCCCCCCCCCC(O)c1cccc(OC)c1 (stereo not drawn)
inactive: dose: 7.5 mg/kg/injection, schedule: Q01DX009 (ip), vehicle: saline with Tween-80 109 % of control | dose: 15.0 mg/kg/injection, schedule: Q01DX009 (ip), vehicle: saline with Tween-80 113 % of control | dose: 30.0 mg/kg/injection, schedule: Q01DX009 (ip), vehicle: saline with Tween-80 109 % of control

Cc1cc(SCC(=O)c2ccc(Br)cc2)cc(C)[o+]1
inactive: [9] 100 % of control | [10] 86 % of control | dose: 100.0 mg/kg/injection, schedule: Q04DX003 (ip), vehicle: saline with Tween-80 104 % of control | dose: 200.0 mg/kg/injection, schedule: Q04DX003 (ip), vehicle: saline with Tween-80 114 % of control

O=[N+]([O-])CC1CCCCC1O (stereo not drawn)
inactive: dose: 6.25 mg/kg/injection, schedule: Q01DX009 (ip), vehicle: saline with Tween-80 100 % of control | dose: 12.5 mg/kg/injection, schedule: Q01DX009 (ip), vehicle: saline with Tween-80 100 % of control | [11] 90 % of control

C[C@]12CC[C@@H]3c4ccc(OCCO)c([N+](=O)[O-])c4CC[C@H]3[C@@H]1CCC2=O
inactive: [6] 104 % of control | [7] 104 % of control | [8] 97 % of control

Cc1cc(C)[s+]s1
inactive: dose: 12.5 mg/kg/injection, schedule: Q01DX009 (ip), vehicle: water 109 % of control | dose: 25.0 mg/kg/injection, schedule: Q01DX009 (ip), vehicle: water 109 % of control | dose: 50.0 mg/kg/injection, schedule: Q01DX009 (ip), vehicle: water 115 % of control | dose: 100.0 mg/kg/injection, schedule: Q01DX009 (ip), vehicle: water 117 % of control

CC(=O)OC1CCC2C(=CCC3C2(C)C(=O)CC2(C)C(C4(C)OC(C(C)C)=CC4=O)C(O)CC32C)C1(C)C (stereo not drawn)
inactive: dose: 9.63 mg/kg/injection, schedule: Q01DX005 (ip), vehicle: saline + Tween-80 + alcohol 111 % of control | dose: 19.25 mg/kg/injection, schedule: Q01DX005 (ip), vehicle: saline + Tween-80 + alcohol 111 % of control | dose: 38.5 mg/kg/injection, schedule: Q01DX005 (ip), vehicle: saline + Tween-80 + alcohol 106 % of control | dose: 77.0 mg/kg/injection, schedule: Q01DX005 (ip), vehicle: saline + Tween-80 + alcohol 97 % of control

CC1CCC2(NC1)OC1CC3C4CCC5CC(OC6OC(CO)C(OC7OC(CO)C(O)C(OC8OCC(O)C(O)C8O)C7OC7OC(CO)C(O)C(O)C7O)C(O)C6O)CCC5(C)C4CCC3(C)C1C2C (stereo not drawn)
inactive: dose: 3.12 mg/kg/injection, schedule: Q04DX003 (ip), vehicle: Klucel (hydroxypropylcellulose) (HPC) 102 % of control | dose: 6.25 mg/kg/injection, schedule: Q04DX003 (ip), vehicle: Klucel (hydroxypropylcellulose) (HPC) 100 % of control | dose: 12.5 mg/kg/injection, schedule: Q04DX003 (ip), vehicle: Klucel (hydroxypropylcellulose) (HPC) 100 % of control and 91 % of control | dose: 50.0 mg/kg/injection, schedule: Q04DX003 (ip), vehicle: Klucel (hydroxypropylcellulose) (HPC) 89 % of control and 93 % of control

CCCCCCCC/C=C\CCCCCCCCN=Cc1c(O)c(O)c(C(C)C)c2cc(C)c(-c3c(C)cc4c(C(C)C)c(O)c(O)c(C=NCCCCCCCC/C=C\CCCCCCCC)c4c3O)c(O)c12
inactive: dose: 25.0 mg/kg/injection, schedule: Q01DX005 (ip), vehicle: saline + Tween-80 + alcohol 105 % of control | dose: 50.0 mg/kg/injection, schedule: Q01DX005 (ip), vehicle: saline + Tween-80 + alcohol 105 % of control | dose: 100.0 mg/kg/injection, schedule: Q01DX005 (ip), vehicle: saline + Tween-80 + alcohol 100 % of control | dose: 200.0 mg/kg/injection, schedule: Q01DX005 (ip), vehicle: saline + Tween-80 + alcohol 105 % of control

CC1C[N+]2(CNC(=O)C3=C(O)C4(O)C(=O)C5=C(O)c6c(O)cccc6C(C)(O)C5CC4C(N(C)C)C3=O)CC(C)O[B-]2(c2ccccc2)O1 (stereo not drawn)
inactive: [12] 110 % of control | [13] 110 % of control | [14] 100 % of control

CN(C)C(=O)Oc1c(Cc2ccccc2)c(=O)n2c([nH]c3ccccc32)c1C#N
inactive: [4] 89 % of control | [5] 92 % of control

CCCC1OP(=O)(N2CC(C)N(P3(=O)OCC(CC)C(CCC)O3)CC2C)OCC1CC (stereo not drawn)
inactive: [12] 90 % of control | [13] 101 % of control

N=C(N)SCc1ccc2nsnc2c1
inactive: dose: 12.5 mg/kg/injection, schedule: Q01DX005 (ip), vehicle: saline with Tween-80 98 % of control | dose: 25.0 mg/kg/injection, schedule: Q01DX005 (ip), vehicle: saline with Tween-80 100 % of control | [6] 98 % of control and 102 % of control

CCOc1c(N=Nc2ccc(OC)cc2)c(C)nn1C(=S)SC
inactive: dose: 60.0 mg/kg/injection, schedule: Q01DX005 (ip), vehicle: Klucel + Tween-80 92 % of control | dose: 120.0 mg/kg/injection, schedule: Q01DX005 (ip), vehicle: Klucel + Tween-80 92 % of control | dose: 240.0 mg/kg/injection, schedule: Q01DX005 (ip), vehicle: Klucel + Tween-80 89 % of control

CC(C)(C)OC(=O)NC(Cc1c[nH]c2ccccc12)C(=O)ON1C(=O)CCC1=O (stereo not drawn)
inactive: [11] 97 % of control | [9] 108 % of control | [10] 110 % of control | dose: 200.0 mg/kg/injection, schedule: Q01DX009 (ip), vehicle: saline with Tween-80 105 % of control

C=C1CC2(CC(C(=C)C)CC=C2C)OC1=O (stereo not drawn)
inactive: dose: 100.0 mg/kg/injection, schedule: Q01DX001 (ip), vehicle: saline 101 % of control | dose: 200.0 mg/kg/injection, schedule: Q01DX001 (ip), vehicle: saline 104 % of control | dose: 400.0 mg/kg/injection, schedule: Q01DX001 (ip), vehicle: saline 109 % of control

OCCN1CCN(CC/C=C2/c3ccccc3Sc3ccc(C(F)(F)F)cc32)CC1
inactive: dose: 10.0 mg/kg/injection, schedule: Q04DX003 (ip), vehicle: saline 115 % of control and 123 % of control | dose: 20.0 mg/kg/injection, schedule: Q04DX003 (ip), vehicle: saline 115 % of control | dose: 80.0 mg/kg/injection, schedule: Q04DX003 (ip), vehicle: saline 91 % of control

NC(CSCc1ccccc1)C(=O)Nc1ccc([N+](=O)[O-])cc1 (stereo not drawn)
inactive: [12] 110 % of control | [13] 101 % of control | [14] 104 % of control
